Test results: patent publication US7217703B2, “8-(2-hydroxyphenoxy)octyldiethanolamine and salts thereof for delivery of active agents” (Emisphere Technologies, Inc., priority 2004, dated 2007)

Experiment: Oral absorption of Ibandronate in rats (urine Ibandronate, 16 h collection, GC/MS)
Assay type: in vivo, male Sprague-Dawley rats
Details: oral gavage, rat, urine 0-16 h post-dosing
Experimental: Oral absorption studies were performed in rats to evaluate the delivery of the bisphosphonate, Ibandronate, when co-administered with a delivery agent compound of the present invention. Sprague-Dawley rats were administered Ibandronate alone or in combination with a delivery agent compound by oral gavage. Urine samples were collected up to 16 hours post-dosing for Ibandronate quantitations. […]
Urine Ibandronate levels from treated rats were determined using a GC/MS method with a standard calibration range of 0–2000 ng/mL and a limit of quantitation (LOQ) of 2.5 ng/ml. Quality control (QC) samples were prepared fresh daily and were analyzed with samples from treated rats. […]
The amount of Ibandronate excreted in the urine is the dose response and was plotted as a straight line against the Ibandronate dose (linear dose-response relationship was assumed). The relative potency of the four delivery agent-containing Ibandronate formulations were calculated against the control formulations (without delivery agent) using a Student's t-test. […]

## CCCCCN(C)CCC(O)(P(=O)(O)O)P(=O)(O)O [Ibandronate]
Ibandronate 5 mg/kg alone
  Mean urine Ibandronate concentration: 426.8
Ibandronate 15 mg/kg alone
  Mean urine Ibandronate concentration: 4157.5
